Patent US20230049952A1, “METHODS AND COMPOUNDS FOR RESTORING MUTANT P53 FUNCTION” (PMV Pharmaceuticals, Inc., priority 2020, published 2023)

Tested on: p53 signaling pathway in MT373 tumors
Assay: MT373 syngeneic sarcoma model: mouse p53 signaling pathway profiling panel
Type: in vivo

SMILES: CCn1c(C#CCNc2ccccc2)cc2cc(CNC3CCN(C)CC3)ccc21 [Compound 1, 1-Anilino-3-{1-ethyl-5-[(1-methyl-4-piperidylamino)methyl]-1H-indol-2-yl}-2-propyne]
- Pcna fold increase or percent reduction vs vehicle control (150 mg/kg BIDx1, 24 h): 42.63 fold or %
- Pmaip1 fold increase or percent reduction vs vehicle control (150 mg/kg BIDx1, 24 h): 1.45 fold or %
- Ppm1d fold increase or percent reduction vs vehicle control (150 mg/kg BIDx1, 24 h): 1.49 fold or %
- Prc1 fold increase or percent reduction vs vehicle control (150 mg/kg BIDx1, 24 h): 54.87 fold or %
- Prkca fold increase or percent reduction vs vehicle control (150 mg/kg BIDx1, 24 h): 28.12 fold or %
- Pten fold increase or percent reduction vs vehicle control (150 mg/kg BIDx1, 24 h): 1.08 fold or %
- Pttg1 fold increase or percent reduction vs vehicle control (150 mg/kg BIDx1, 24 h): 1.11 fold or %
- Rb1 fold increase or percent reduction vs vehicle control (150 mg/kg BIDx1, 24 h): 1.48 fold or %
- Rela fold increase or percent reduction vs vehicle control (150 mg/kg BIDx1, 24 h): 14.73 fold or %
- Rprm fold increase or percent reduction vs vehicle control (150 mg/kg BIDx1, 24 h): 2.12 fold or %
- Serpinb5 fold increase or percent reduction vs vehicle control (150 mg/kg BIDx1, 24 h): 2.23 fold or %
- Sesn2 fold increase or percent reduction vs vehicle control (150 mg/kg BIDx1, 24 h): 2.45 fold or %
- Sfn fold increase or percent reduction vs vehicle control (150 mg/kg BIDx1, 24 h): 31.21 fold or %
- Sirt1 fold increase or percent reduction vs vehicle control (150 mg/kg BIDx1, 24 h): 15.06 fold or %
- Stat1 fold increase or percent reduction vs vehicle control (150 mg/kg BIDx1, 24 h): 1.51 fold or %
- Tnf fold increase or percent reduction vs vehicle control (150 mg/kg BIDx1, 24 h): 1.23 fold or %
- Traf1 fold increase or percent reduction vs vehicle control (150 mg/kg BIDx1, 24 h): 1.20 fold or %
- Trp53bp2 fold increase or percent reduction vs vehicle control (150 mg/kg BIDx1, 24 h): 12.94 fold or %
- Trp53 fold increase or percent reduction vs vehicle control (150 mg/kg BIDx1, 24 h): 27.25 fold or %
- Apex1 fold increase or percent reduction vs vehicle control (150 mg/kg BIDx1, 48 h): 31.42 fold or %
- Atm fold increase or percent reduction vs vehicle control (150 mg/kg BIDx1, 48 h): 26.33 fold or %
- Atr fold increase or percent reduction vs vehicle control (150 mg/kg BIDx1, 48 h): 16.47 fold or %
- Bag1 fold increase or percent reduction vs vehicle control (150 mg/kg BIDx1, 48 h): 42.01 fold or %
- Bax fold increase or percent reduction vs vehicle control (150 mg/kg BIDx1, 48 h): 30.76 fold or %
- Bbc3 fold increase or percent reduction vs vehicle control (150 mg/kg BIDx1, 48 h): 1.04 fold or %
- Bcl2 fold increase or percent reduction vs vehicle control (150 mg/kg BIDx1, 48 h): 23.30 fold or %
- Bid fold increase or percent reduction vs vehicle control (150 mg/kg BIDx1, 48 h): 1.01 fold or %
- Birc5 fold increase or percent reduction vs vehicle control (150 mg/kg BIDx1, 48 h): 66.42 fold or %
- Brca1 fold increase or percent reduction vs vehicle control (150 mg/kg BIDx1, 48 h): 60.55 fold or %
- Brca2 fold increase or percent reduction vs vehicle control (150 mg/kg BIDx1, 48 h): 41.49 fold or %
- Btg2 fold increase or percent reduction vs vehicle control (150 mg/kg BIDx1, 48 h): 1.05 fold or %
- Casp2 fold increase or percent reduction vs vehicle control (150 mg/kg BIDx1, 48 h): 15.74 fold or %
- Ccnb1 fold increase or percent reduction vs vehicle control (150 mg/kg BIDx1, 48 h): 73.80 fold or %
- Ccne1 fold increase or percent reduction vs vehicle control (150 mg/kg BIDx1, 48 h): 38.25 fold or %
- Ccng1 fold increase or percent reduction vs vehicle control (150 mg/kg BIDx1, 48 h): 1.45 fold or %
- Ccnh fold increase or percent reduction vs vehicle control (150 mg/kg BIDx1, 48 h): 16.38 fold or %
- Cdc25a fold increase or percent reduction vs vehicle control (150 mg/kg BIDx1, 48 h): 42.22 fold or %
- Cdk1 fold increase or percent reduction vs vehicle control (150 mg/kg BIDx1, 48 h): 69.40 fold or %
- Cdk4 fold increase or percent reduction vs vehicle control (150 mg/kg BIDx1, 48 h): 54.23 fold or %
- Cdkn1a fold increase or percent reduction vs vehicle control (150 mg/kg BIDx1, 48 h): 1.38 fold or %
- Cdkn2a fold increase or percent reduction vs vehicle control (150 mg/kg BIDx1, 48 h): 38.18 fold or %
- Chek1 fold increase or percent reduction vs vehicle control (150 mg/kg BIDx1, 48 h): 63.16 fold or %
- Cradd fold increase or percent reduction vs vehicle control (150 mg/kg BIDx1, 48 h): 24.24 fold or %
- Cul9 fold increase or percent reduction vs vehicle control (150 mg/kg BIDx1, 48 h): 1.03 fold or %
- Dapk1 fold increase or percent reduction vs vehicle control (150 mg/kg BIDx1, 48 h): 1.17 fold or %
- Dnmt1 fold increase or percent reduction vs vehicle control (150 mg/kg BIDx1, 48 h): 34.04 fold or %
- E2f1 fold increase or percent reduction vs vehicle control (150 mg/kg BIDx1, 48 h): 30.48 fold or %
- E2f3 fold increase or percent reduction vs vehicle control (150 mg/kg BIDx1, 48 h): 33.97 fold or %
- Egfr fold increase or percent reduction vs vehicle control (150 mg/kg BIDx1, 48 h): 41.85 fold or %
- Egr1 fold increase or percent reduction vs vehicle control (150 mg/kg BIDx1, 48 h): 46.38 fold or %
- Ep300 fold increase or percent reduction vs vehicle control (150 mg/kg BIDx1, 48 h): 1.10 fold or %
- Ercc1 fold increase or percent reduction vs vehicle control (150 mg/kg BIDx1, 48 h): 44.10 fold or %
- Esr1 fold increase or percent reduction vs vehicle control (150 mg/kg BIDx1, 48 h): 1.67 fold or %
- Fadd fold increase or percent reduction vs vehicle control (150 mg/kg BIDx1, 48 h): 9.11 fold or %
- Fas fold increase or percent reduction vs vehicle control (150 mg/kg BIDx1, 48 h): 10.02 fold or %
- Fasl fold increase or percent reduction vs vehicle control (150 mg/kg BIDx1, 48 h): 1.18 fold or %
- Foxo3 fold increase or percent reduction vs vehicle control (150 mg/kg BIDx1, 48 h): 7.35 fold or %
- Gadd45a fold increase or percent reduction vs vehicle control (150 mg/kg BIDx1, 48 h): 42.12 fold or %
- Hif1a fold increase or percent reduction vs vehicle control (150 mg/kg BIDx1, 48 h): 2.87 fold or %
- Il6 fold increase or percent reduction vs vehicle control (150 mg/kg BIDx1, 48 h): 79.27 fold or %
- Jun fold increase or percent reduction vs vehicle control (150 mg/kg BIDx1, 48 h): 47.43 fold or %
- Kras fold increase or percent reduction vs vehicle control (150 mg/kg BIDx1, 48 h): 1.18 fold or %
- Lig4 fold increase or percent reduction vs vehicle control (150 mg/kg BIDx1, 48 h): 1.12 fold or %
- Mdm2 fold increase or percent reduction vs vehicle control (150 mg/kg BIDx1, 48 h): 1.03 fold or %
- Mdm4 fold increase or percent reduction vs vehicle control (150 mg/kg BIDx1, 48 h): 1.28 fold or %
- Mel1 fold increase or percent reduction vs vehicle control (150 mg/kg BIDx1, 48 h): 6.76 fold or %
- Mlh1 fold increase or percent reduction vs vehicle control (150 mg/kg BIDx1, 48 h): 19.02 fold or %
- Msh2 fold increase or percent reduction vs vehicle control (150 mg/kg BIDx1, 48 h): 29.32 fold or %
- Myod1 fold increase or percent reduction vs vehicle control (150 mg/kg BIDx1, 48 h): 1.51 fold or %
- Nf1 fold increase or percent reduction vs vehicle control (150 mg/kg BIDx1, 48 h): 9.92 fold or %
- Nfkb1 fold increase or percent reduction vs vehicle control (150 mg/kg BIDx1, 48 h): 4.37 fold or %
- Pcna fold increase or percent reduction vs vehicle control (150 mg/kg BIDx1, 48 h): 58.04 fold or %
- Pmaip1 fold increase or percent reduction vs vehicle control (150 mg/kg BIDx1, 48 h): 1.17 fold or %
- Ppm1d fold increase or percent reduction vs vehicle control (150 mg/kg BIDx1, 48 h): 2.87 fold or %
- Prc1 fold increase or percent reduction vs vehicle control (150 mg/kg BIDx1, 48 h): 59.70 fold or %
- Prkca fold increase or percent reduction vs vehicle control (150 mg/kg BIDx1, 48 h): 22.18 fold or %
- Pten fold increase or percent reduction vs vehicle control (150 mg/kg BIDx1, 48 h): 1.08 fold or %
- Pttg1 fold increase or percent reduction vs vehicle control (150 mg/kg BIDx1, 48 h): 0.69 fold or %
- Rb1 fold increase or percent reduction vs vehicle control (150 mg/kg BIDx1, 48 h): 1.43 fold or %
- Rela fold increase or percent reduction vs vehicle control (150 mg/kg BIDx1, 48 h): 9.46 fold or %
- Rprm fold increase or percent reduction vs vehicle control (150 mg/kg BIDx1, 48 h): 1.00 fold or %
- Serpinb5 fold increase or percent reduction vs vehicle control (150 mg/kg BIDx1, 48 h): 3.17 fold or %
- Sesn2 fold increase or percent reduction vs vehicle control (150 mg/kg BIDx1, 48 h): 1.21 fold or %
- Sfn fold increase or percent reduction vs vehicle control (150 mg/kg BIDx1, 48 h): 13.65 fold or %
